Measurements published in US20240182456A1, “2-((4-((S)-2-(4-CHLORO-2-FLUOROPHENYL)-2-METHYLBENZO[D][1,3]DIOXOL-4-YL)PIPERIDIN-1-YL)METHYL)-1-(((S)-OXETAN-2-YL)METHYL)-1H-IMIDAZOLE DERIVATIVES AS ACTIVATORS OF THE GLP1 RECEPTOR FOR THE TREATMENT OF OBESITY” (Novartis AG, priority 2021, published 2024).

Target: human GLP1R (Homo sapiens, UniProt P43220)
Test: Human GLP1R DERET internalization assay
Assay type: cell-based
Settings: HEK293-SNAP-hGLP1R-GloSensor cells; for EC50: mean n=2; for Emax: relative to GLP1(7-36)
In short: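 HEK293 cells stably expressing SNAP-tagged hGLP1R, labelled with SNAP-Lumi-Tb, then exposed at 37 °C to 3-fold compound dilutions (top 30 μM) with 25 μM fluorescein. Donor/acceptor TR-FRET ratio read every 30 min. EC50 and Emax from 4-parameter fits, normalised to the GLP1(7-36) EC100 (top 1 μM) and buffer-only EC0 wells.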

human GLP1R, sequence (P43220 24-463): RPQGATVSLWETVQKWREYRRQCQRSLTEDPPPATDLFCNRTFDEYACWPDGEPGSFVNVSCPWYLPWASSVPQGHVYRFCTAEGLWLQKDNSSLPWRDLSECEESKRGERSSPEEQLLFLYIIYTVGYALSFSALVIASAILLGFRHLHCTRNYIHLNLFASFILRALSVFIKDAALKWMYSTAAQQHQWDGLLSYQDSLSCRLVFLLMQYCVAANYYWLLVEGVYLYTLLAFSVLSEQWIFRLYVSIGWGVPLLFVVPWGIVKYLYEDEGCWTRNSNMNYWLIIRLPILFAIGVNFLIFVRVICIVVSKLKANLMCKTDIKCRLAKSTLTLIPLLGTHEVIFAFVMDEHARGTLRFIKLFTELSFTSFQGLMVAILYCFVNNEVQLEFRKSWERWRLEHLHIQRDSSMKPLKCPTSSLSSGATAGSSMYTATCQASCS

Compound | EC50 [nM] | Emax [%]
Cc1nc(CN2CCC(c3cccc4c3O[C@@](C)(c3ccc(Cl)cc3F)O4)CC2)n(C[C@@H]2CCO2)c1/C=C/C(=O)O [Compound C-5, (E)-3-(2-((4-((S)-2-(4-chloro-2-fluorophenyl)-2-methylbenzo[d][1,3]dioxol-4-yl)piperidin-1-yl)methyl)-4-methyl-1-(((S)-oxetan-2-yl)methyl)-1H-imidazol-5-yl)acrylic acid] | 89 | 58
C[C@]1(c2ccc(Cl)cc2F)Oc2cccc(C3CCN(Cc4nc(/C=C/C(=O)O)cn4C[C@@H]4CCO4)CC3)c2O1 [Compound C-2, (E)-3-(2-((4-((S)-2-(4-chloro-2-fluorophenyl)-2-methylbenzo[d][1,3]dioxol-4-yl)piperidin-1-yl)methyl)-1-(((S)-oxetan-2-yl)methyl)-1H-imidazol-4-yl)acrylic acid] | > 30000 | 5
C[C@]1(c2ccc(Cl)cc2F)Oc2cccc(C3CCN(Cc4nc(C(F)(F)F)c(C(=O)O)n4C[C@@H]4CCO4)CC3)c2O1 [Compound C-7, 2-((4-((S)-2-(4-chloro-2-fluorophenyl)-2-methylbenzo[d][1,3]dioxol-4-yl)piperidin-1-yl)methyl)-1-(((S)-oxetan-2-yl)methyl)-4-(trifluoromethyl)-1H-imidazole-5-carboxylic acid] | > 30000 | 3
C[C@]1(c2ccc(Cl)cc2F)Oc2cccc(C3CCN(Cc4ncc(/C=C/C(=O)O)n4C[C@@H]4CCO4)CC3)c2O1 [Compound C-1, (E)-3-(2-((4-((S)-2-(4-chloro-2-fluorophenyl)-2-methylbenzo[d][1,3]dioxol-4-yl)piperidin-1-yl)methyl)-1-(((S)-oxetan-2-yl)methyl)-1H-imidazol-5-yl)acrylic acid] | 336 | 67
